Assays:
[1] = tested on: Donor 1 COP T-Cell Lines; test: ATP proliferation assay (CellTiter Glo), Donor 1 COP T-cell lines, incl. reactivity to non-canonical GA peptides; type: cell-based, human; conditions: for ATP Proliferation Assay, Mean: Day 56, second assay; for luminescent ATP proliferation assay, mean: no antigen 5673 (Table 9); for Proliferation (luminescent ATP assay), Mean: Day 56 of culturing; for response to GMA in comparison to COP: 10 μg/mL dose
Description: (§1) Proliferation was evaluated by measuring ATP content using a luminescent method (CellTiter Glo Luminescent Cell Viability Assay, Promega, Madison, Wis., cat. #G7571) or by measuring BrdU uptake by ELISA (Millipore cat. #2752), in both cases following kit instructions. A split well format was used. Cells in each well were resuspended and 65 μl transferred to the wells of each of two new U-bottom 96-well plates, to generate the replicate plates. For the initial screening, the original 96-well plate received mitomycin-treated autologous PBMC as APC plus 10 μg/mL antigen (GA). A first replicate plate received 100 μl., mitomycin-treated PBMC alone (2×10^5), and no antigen, and a second replicate plate received 100 μL mitomycin-treated PBMC plus GA at a final concentration of 10 μg/mL. Therefore, all three plates received autologous APC (PBMC) treated with mitomycin C to prevent cell division. […] The latter two plates were incubated for 3 days at 37° C., 6% CO2 before adding CellTiter Glo or BrdU and measuring signal. IL-2 was added at 10 U/mL to the original 96-well plate for expansion on Day 17. For subsequent screenings, mitomycin-treated EBV-transformed autologous B-LCL (2×10^5 to 5×10^5 cells/mL) were used as APC.
COP-responsive T-cell lines were obtained from Donor 1. In the initial stimulation, isolated PBMC were plated at 1×10^5 cells per well (5×10^5 cells/mL) with 10 μg/mL Copaxone and cultured as described above. IL-2 was added to all wells on Days 4 and 7 of culture, and the wells screened for reactivity on Day 14 using a luminescent proliferation assay in split well format. The original plate was restimulated, and IL-2 added 4 days after restimulation.
(§2) T-cell line 222-2D8, generated from Donor 1 by initial stimulation with COP, was shown in at least two experiments to proliferate comparably following restimulation with GMA and COP. […] ATP levels were measured at 48 hours after stimulation. The control in the GMA series was no antigen, and the control in the COP series was MBP. The response to GMA in comparison to COP at the 10 μg/mL dose in this assay was 103.4%.
In a second ATP proliferation assay, carried out on Day 56 or culturing following stimulation with 1, 3, or 10 μg/mL of GMA or COP, the response to GMA in comparison to COP at the 10 μg/mL dose was 107.1%.
as §2, with “line 222-2F1,” for “line 222-2D8,”, “Donor 222” for “Donor 1”, “was 85.1%.” for “was 103.4%.”
On Day 56 of culturing, after six total rounds of stimulation, cell line 222-2F12 was assayed for proliferation in response to stimulation with GA and a series of non-canonical peptides. For the assay, 0, 3, 10, or 30 μg/mL of each of peptides GL 14, GLT 631, GAT 111, and GAT 631, COP, and GMA, were added to the T-cell lines at 1×10^5 cells/mL, in the presence of mitomycin C-treated autologous B-LCL. Proliferation was measured by luminescent ATP assay. Cell line 222-2F12 responded to GL 14 at 3 μg/mL, and not to the other non-canonical GA peptides tested. The response to GMA in comparison to COP at the 10 μg/mL dose in this assay was 99.4%.
The cultures were restimulated on days 46, 56, 67 and 75. On Day 56, cell lines 222-2D8, 222-1H12, 222-2F12, 222-2B8, 222-105, 222-2B11, and 222-2E1 again were tested for reactivity to stimulation with 1, 3, or 10 μg/mL of GMA or COP in a proliferation assay. ATP levels were measured in all seven cell lines at 48 hours (results in FIGS. 5A-G) after stimulation. The control in the GMA series was no antigen, and the control in the COP series was MBP. […]

[2] = tested on: Donor 1 GMA Expanded T-Cell Lines (222-AG11, 222-AG12, 222-BA11, 222-BC11); test: ATP proliferation assay (CellTiter Glo), Donor 1 GMA expanded T-cell lines, incl. reactivity to non-canonical GA peptides; type: cell-based, human; conditions: for Proliferation (luminescent ATP assay), Mean: T-cell line 222-AG12, autologous B-LCL; for Non-Canonical Peptide Non-Reactivity: 222-AG12, proliferation <2 times no antigen control; for Nonreactive T-Cell Line: Donor 1 GMA expanded lines, stimulation with the non-canonical GA peptide
Description: as §1
On Day 24, cells from the wells corresponding to the eight presumptive GA-specific human T-cell lines listed in Table 4 were transferred to a 24-well plate and expanded by stimulating with 10 μg/mL GMA and mitomycin-treated autologous PBMC as APC (3×10^6 per well, i.e., 1.5×10^6/mL). On Day 32 four of the eight lines, 222-BA11, 222-BC11, 222-AG11, and 222-AG12, were stimulated with 0, 1, 10 and 100 μg/mL GMA and tested in a 96-well plate for a proliferative response to GMA using an ATP assay, again using autologous PBMC as APC (2×10^5 per well, i.e., 1×10^6/mL). […] FIGS. 2A and B show the results of the ATP proliferation assay carried out using 222-AG12, 222-BC11, 222-AG11, and 222-BA11 at Day 35 (control=no antigen). FIGS. 3A-C compare the results of ATP proliferation assays carried out after stimulation with varying concentrations of GMA or Copaxone as indicated, using cell lines 222-BA11, 222-BC11, and 222-AG12.
Donor 1 GMA T-cell line 222-AG12 was assayed for proliferation following stimulation with 0, 1, 10, and 30 μg/mL each of peptides GLT 631, GAT 631, GAT 111, LT 11, GT 11, GL 14, COP, and GMA, at a T-cell concentration of 2×10^5 cells/mL, in the presence of mitomycin C-treated autologous B-LCL. Line 222-AG12 was assayed after 3 rounds of restimulation (4 total stimulations). Proliferation was measured by luminescent ATP assay.

[3] = 222-2D8, Day 56, 48 hours after stimulation, 1 μg/mL (Table 6)
[4] = 222-2D8, Day 56, 48 hours after stimulation, 3 μg/mL (Table 6)
[5] = 222-2D8, Day 56, 48 hours after stimulation, 10 μg/mL (Table 6)
[6] = 222-2F12, Day 56, 48 hours after stimulation, 1 μg/mL (Table 8)
[7] = 222-2F12, Day 56, 48 hours after stimulation, 3 μg/mL (Table 8)
[8] = 222-2F12, Day 56, 48 hours after stimulation, 10 μg/mL (Table 8)
[9] = T-cell line 222-1H12, 3 μg/mL antigen, 0 μg/mL 5974
[10] = T-cell line 222-1H12, 10 μg/mL antigen, 0 μg/mL 5974
[11] = T-cell line 222-1H12, 30 μg/mL antigen, 0 μg/mL 5974
[12] = T-cell line 222-2F12, 3 μg/mL antigen, 0 μg/mL 5673
[13] = T-cell line 222-2F12, 10 μg/mL antigen, 0 μg/mL 5673
[14] = T-cell line 222-2F12, 30 μg/mL antigen, 0 μg/mL 5673

Substance	ATP Proliferation Assay, Mean ([1]; 222-2D8, 1 μg/mL (Table 7))	ATP Proliferation Assay, Mean ([1]; 222-2D8, 3 μg/mL (Table 7))	ATP Proliferation Assay, Mean ([1]; 222-2D8, 10 μg/mL (Table 7))	ATP proliferation assay [1, 3]	ATP proliferation assay [1, 4]	ATP proliferation assay [1, 5]	luminescent ATP proliferation assay, mean ([1]; 222-2F12, Day 56, 3 μg/mL)	luminescent ATP proliferation assay, mean ([1]; 222-2F12, Day 56, 10 μg/mL)	luminescent ATP proliferation assay, mean ([1]; 222-2F12, Day 56, 30 μg/mL)	ATP proliferation assay [1, 6]	ATP proliferation assay [1, 7]	ATP proliferation assay [1, 8]	Proliferation (luminescent ATP assay), Mean [1, 9]	Proliferation (luminescent ATP assay), Mean [1, 10]	Proliferation (luminescent ATP assay), Mean [1, 11]	Proliferation (luminescent ATP assay), Mean [1, 12]	Proliferation (luminescent ATP assay), Mean [1, 13]	Proliferation (luminescent ATP assay), Mean ([2]; 1 ug/mL antigen)	Proliferation (luminescent ATP assay), Mean ([2]; 10 ug/mL antigen)	Proliferation (luminescent ATP assay), Mean ([2]; 30 ug/mL antigen)	other results
glatiramer acetate [COP]	7229	134127	146092	4888	6392	12161	233087	230009	118769	5281	8684	11747	146874 RLU	168163 RLU	68492 RLU	233087	230009	10056 RLU	233083 RLU	227055 RLU	ATP proliferation assay ([1]; 222-1C5, 10 μg/mL, Day 14, control 7087): 14906 RLU; ATP proliferation assay ([1]; 222-1F8, 10 μg/mL, Day 14, control 2308): 6519 RLU; ATP proliferation assay ([1]; 222-1G8, 10 μg/mL, Day 14, control 4030): 8308 RLU; ATP proliferation assay ([1]; 222-1H12, 10 μg/mL, Day 14, control 8141): 23836 RLU; ATP proliferation assay ([1]; 222-2B8, 10 μg/mL, Day 14, control 5543): 13600 RLU; ATP proliferation assay ([1]; 222-2B11, 10 μg/mL, Day 14, control 6340): 16460 RLU; ATP proliferation assay ([1]; 222-2C1, 10 μg/mL, Day 14, control 8350): 20166 RLU; ATP proliferation assay ([1]; 222-2C3, 10 μg/mL, Day 14, control 6839): 14045 RLU; ATP proliferation assay ([1]; 222-2C5, 10 μg/mL, Day 14, control 4695): 9577 RLU; ATP proliferation assay ([1]; 222-2D2, 10 μg/mL, Day 14, control 7135): 16271 RLU; ATP proliferation assay ([1]; 222-2D8, 10 μg/mL, Day 14, control 13024): 26495 RLU; ATP proliferation assay ([1]; 222-2E1, 10 μg/mL, Day 14, control 8035): 17064 RLU; ATP proliferation assay ([1]; 222-2F12, 10 μg/mL, Day 14, control 9703): 28022 RLU; ATP proliferation assay ([1]; 222-2G4, 10 μg/mL, Day 14, control 2566): 6812 RLU; ATP proliferation assay ([1]; 222-2G12, 10 μg/mL, Day 14, control 3913): 9899 RLU; Proliferation (luminescent ATP assay), Mean [1, 14]: 118769; ATP proliferation signal relative to control ([1]; fifteen Donor 1 COP T-cell lines of Table 5, 10 μg/mL): at least twice the signal as control
glatiramer acetate [GMA]	2078	149752	156417	4369	7480	12793	232779	228761	125994	6500	8520	12382	141486 RLU	167193 RLU	82376 RLU	232779	228761	–	–	–	response to GMA in comparison to COP ([1]; 222-2D8, Day 56 (Table 6)): 103.4%; response to GMA in comparison to COP ([1]; 222-2D8, second assay (Table 7)): 107.1%; response to GMA in comparison to COP ([1]; 222-2F12 (printed 222-2F1), Day 56 (Table 8)): 85.1%; response to GMA in comparison to COP ([1]; 222-2F12, Day 56 (Table 9)): 99.4%; Proliferation (luminescent ATP assay), Mean [1, 14]: 125994; proliferative response relative to control, dose comparison ([2]; 222-BA11, 222-BC11, 222-AG11, 222-AG12, Day 32, 0, 1, 10, 100 μg/mL): best proliferative response relative to control was observed in the cells stimulated with 10 μg/mL
poly (Glu-Tyr; 1:1) [GT 11]	–	–	–	–	–	–	–	–	–	–	–	–	–	–	–	–	–	2650 RLU	3285 RLU	2231 RLU	Non-Canonical Peptide Non-Reactivity [2]: GT 11; Nonreactive T-Cell Line [2]: 222-AG12 (Donor 1)
poly (Lys-Tyr; 1:1) [LT 11]	–	–	–	–	–	–	–	–	–	–	–	–	–	–	–	–	–	3452 RLU	4242 RLU	2347 RLU	Non-Canonical Peptide Non-Reactivity [2]: LT 11; Nonreactive T-Cell Line [2]: 222-AG12 (Donor 1)

From patent US9995734B2, “Human T cell line assay for evaluating the immunologic identity of glatiramer acetate preparations” (Mylan Inc., priority 2013, dated 2018)
